Entries after “also recorded” stand apart in the source; their conditions may differ. Like-named read-outs stand apart in the source and are kept apart here.
Assays:
5-HT1A = molecular target: T1, 5-HT1A (Homo sapiens, UniProt P08908); details: read-out: binding affinity (Ki) 5-HT1A; cited from earlier work
T1 sequence (P08908 1-422): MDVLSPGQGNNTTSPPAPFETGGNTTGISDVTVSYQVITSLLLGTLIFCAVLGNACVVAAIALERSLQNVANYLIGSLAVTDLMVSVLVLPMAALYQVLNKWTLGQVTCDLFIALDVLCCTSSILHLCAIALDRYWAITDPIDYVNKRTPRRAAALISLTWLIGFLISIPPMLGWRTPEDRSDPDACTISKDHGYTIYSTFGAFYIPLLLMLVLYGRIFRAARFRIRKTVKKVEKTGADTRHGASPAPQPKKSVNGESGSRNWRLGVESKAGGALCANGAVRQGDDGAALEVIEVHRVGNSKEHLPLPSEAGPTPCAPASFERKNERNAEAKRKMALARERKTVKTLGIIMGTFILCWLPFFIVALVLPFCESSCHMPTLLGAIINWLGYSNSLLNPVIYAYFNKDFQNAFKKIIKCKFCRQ

5-HT5 = 5-HT5 (Homo sapiens, UniProt P47898); details: read-out: binding affinity (Ki) 5-HT5; cited from earlier work
5-HT5, sequence (P47898 whole entry, species assumed): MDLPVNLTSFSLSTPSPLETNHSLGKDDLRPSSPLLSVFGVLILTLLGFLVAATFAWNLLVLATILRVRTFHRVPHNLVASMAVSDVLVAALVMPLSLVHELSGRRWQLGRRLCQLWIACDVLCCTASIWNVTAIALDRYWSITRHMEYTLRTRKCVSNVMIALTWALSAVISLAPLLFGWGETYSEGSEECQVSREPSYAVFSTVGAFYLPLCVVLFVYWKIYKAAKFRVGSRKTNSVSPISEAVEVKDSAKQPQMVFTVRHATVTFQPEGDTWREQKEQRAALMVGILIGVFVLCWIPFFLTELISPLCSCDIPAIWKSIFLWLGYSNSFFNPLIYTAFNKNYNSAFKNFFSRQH

5-HT6 = 5-HT6 (Homo sapiens, UniProt P50406); details: read-out: binding affinity (Ki) 5-HT6; cited from earlier work
5-HT6, sequence (P50406 whole entry, species assumed): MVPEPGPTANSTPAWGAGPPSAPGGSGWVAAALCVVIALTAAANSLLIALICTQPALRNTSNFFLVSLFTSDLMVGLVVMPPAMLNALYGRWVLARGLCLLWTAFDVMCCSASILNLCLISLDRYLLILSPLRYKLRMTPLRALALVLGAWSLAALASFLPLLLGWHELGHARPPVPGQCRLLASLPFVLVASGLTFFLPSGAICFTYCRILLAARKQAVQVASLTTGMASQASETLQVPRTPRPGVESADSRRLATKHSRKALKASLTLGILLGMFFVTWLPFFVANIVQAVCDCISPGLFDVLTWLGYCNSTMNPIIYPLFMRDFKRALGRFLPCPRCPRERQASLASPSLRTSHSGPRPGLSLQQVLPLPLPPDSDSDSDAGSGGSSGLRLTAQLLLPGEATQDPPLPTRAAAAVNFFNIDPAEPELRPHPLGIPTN

5-HT7 = 5-HT7 (Homo sapiens, UniProt P34969); details: read-out: binding affinity (Ki) 5-HT7; cited from earlier work
5-HT7, sequence (P34969 whole entry, species assumed): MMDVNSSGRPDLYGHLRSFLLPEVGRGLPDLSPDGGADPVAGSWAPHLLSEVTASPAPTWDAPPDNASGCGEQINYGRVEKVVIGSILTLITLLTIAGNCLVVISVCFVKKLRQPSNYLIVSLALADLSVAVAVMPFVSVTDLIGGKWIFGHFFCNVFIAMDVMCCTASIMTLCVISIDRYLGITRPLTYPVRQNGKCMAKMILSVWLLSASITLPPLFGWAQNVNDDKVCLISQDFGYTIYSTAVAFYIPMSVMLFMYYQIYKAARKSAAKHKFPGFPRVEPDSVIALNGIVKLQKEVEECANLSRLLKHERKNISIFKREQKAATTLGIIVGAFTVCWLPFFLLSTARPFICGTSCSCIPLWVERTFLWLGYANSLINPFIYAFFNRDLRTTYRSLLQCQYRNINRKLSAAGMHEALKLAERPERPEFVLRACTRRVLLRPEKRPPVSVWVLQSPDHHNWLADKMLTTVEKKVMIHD

[1] = molecular target: Norepinephrine Transporter (Homo sapiens, UniProt P23975); details: read-out: binding affinity (Ki) Norepinephrine Transporter; cited from earlier work
Norepinephrine Transporter, sequence (P23975 whole entry): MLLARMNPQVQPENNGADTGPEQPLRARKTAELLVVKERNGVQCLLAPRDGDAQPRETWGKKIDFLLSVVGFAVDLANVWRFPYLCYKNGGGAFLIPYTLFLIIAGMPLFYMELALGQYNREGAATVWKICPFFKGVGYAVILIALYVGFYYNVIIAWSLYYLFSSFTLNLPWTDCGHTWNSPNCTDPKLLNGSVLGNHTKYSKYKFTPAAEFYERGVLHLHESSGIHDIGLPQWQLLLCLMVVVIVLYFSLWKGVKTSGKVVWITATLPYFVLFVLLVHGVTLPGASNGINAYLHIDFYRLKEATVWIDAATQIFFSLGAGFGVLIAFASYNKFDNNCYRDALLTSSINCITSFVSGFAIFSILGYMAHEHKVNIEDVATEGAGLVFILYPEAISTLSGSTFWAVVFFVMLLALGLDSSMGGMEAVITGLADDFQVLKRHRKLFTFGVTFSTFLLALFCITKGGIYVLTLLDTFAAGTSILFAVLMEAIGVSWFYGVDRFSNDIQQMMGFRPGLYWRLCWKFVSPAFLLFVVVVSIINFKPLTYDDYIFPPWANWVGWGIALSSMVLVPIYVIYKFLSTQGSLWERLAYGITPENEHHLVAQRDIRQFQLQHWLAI

scn1lab mutant zebrafish [2] = experiment: Locomotion assay of high-velocity seizure-like swim behavior; assay type: in vivo, zebrafish (Danio rerio)
Source text: Zebrafish maintenance. Zebrafish were raised under standard laboratory conditions in accordance with requirements outlined in the Guide for the Care and Use of Animals (ebrary Inc., 2011) and experiments were approved by the Institutional Animal Care and Use Committee (protocol #AN108659-03). Embryos were obtained by natural spawning of scn1lab (didy^s552) heterozygous animals that had been outcrossed to TL strain. Homozygous scn1lab mutants (n=2500) have dispersed melanosomes and appear visibly darker by 3 dpf compared to WT larvae.
Seizure monitoring. At 5 dpf individual zebrafish larvae were placed into a single well of a clear flat-bottomed 96-well microplate containing embryo media. Larvae were selected randomly as sex determination is not possible at this stage of development. All drug screening experiments were conducted in an unbiased manner by investigators blinded to the test compounds and all files coded for post hoc analysis. Microplates were placed inside the DanioVision and acclimated for 20 min at room temperature. Locomotion plots were obtained for each well at a recording epoch of 10 min using EthoVision XT software (DanioVision, Noldus Information Technology). Seizure scoring was performed using the following three-stage scale established for pentylenetetrazole-induced seizures: Stage 0, no or very little swim activity; Stage I, increased, brief bouts of swim activity; Stage II, rapid “whirlpool-like” circling swim behavior; and Stage III, paroxysmal whole-body clonus-like convulsions, and a brief loss of posture. WT fish are typically scored at Stage 0 or I. Plots were analyzed for distance travelled (in millimeters) and mean velocity (in millimeters per second). After 90 mins of drug exposure larvae were examined for toxic side-effects. Compounds that decreased or stopped the larva heartbeat, or reduced or eliminated the escape response when touched, were considered toxic.
Statistics. Data are presented as the mean±standard error of the mean (SEM), unless otherwise stated. For behavior analysis, the threshold for a change in mean swim velocity ≥40% (>1.5×SD of 250 control treated scn1lab) is considered significant. For comparison between more than two groups one-way ANOVA analysis was used. […] Differences considered statistically significant are indicated with asterisks (*P<0.05; **P<0.01).

scn1lab mutant zebrafish [3] = experiment: Local field potential (LFP) electrophysiology of electrographic seizure events; assay type: in vivo, zebrafish (Danio rerio)
Protocol: For electrophysiology studies, zebrafish larvae were anesthetized with cold and immobilized in 1.2% agarose; local field potential (LFP) recordings were obtained from forebrain or optic tectum structures using a single-electrode approach, as previously described (Baraban, S. C. et al., Neuroscience, 131, 759-768, 2005). Agarose-embedded LFP recording sessions of 10 min were obtained at 1 kHz. Epileptiform events were identified post hoc and defined as multi-spike or poly-spike upward or downward membrane deflections greater than 3× baseline noise level and 150-250 ms in duration (interictal-like) or greater than 5× baseline noise, multi-spike and >500 ms in duration (ictal-like); both events were counted using threshold detection settings in Clampfit (Molecular Devices; Sunnyvale, Calif.). During electrophysiology experiments larvae were continuously monitored for blood flow and heart rate using an Axiocam digital camera at video frame rate.
Monitoring electrographic brain activity to confirm seizure suppression is an essential assay to eliminate false positives from behavioral testing (Griffin, A. et al., Frontiers in Pharmacology, 9, 2018). By placing a microelectrode into a visually identified brain region of an agar-immobilized zebrafish larval, stable local field potential (LFP) recordings can be monitored for several hours (Baraban, S. C. et al., Nat Commun, 4, 2410, 2013). At 5 dpf LFP recordings of scn1Lab zebrafish larvae show an average of 250 abnormal electrographic seizure events during a 10 min recording epoch.

human 5-HT2AR = molecular target: T2, human 5-HT2AR (Homo sapiens, UniProt P28223); details: read-out: binding affinity (Ki) 5-HT2A / 5-HT2AR, cited from earlier work
T2 construct: expressed in transfected cells
T2 sequence (P28223 whole entry): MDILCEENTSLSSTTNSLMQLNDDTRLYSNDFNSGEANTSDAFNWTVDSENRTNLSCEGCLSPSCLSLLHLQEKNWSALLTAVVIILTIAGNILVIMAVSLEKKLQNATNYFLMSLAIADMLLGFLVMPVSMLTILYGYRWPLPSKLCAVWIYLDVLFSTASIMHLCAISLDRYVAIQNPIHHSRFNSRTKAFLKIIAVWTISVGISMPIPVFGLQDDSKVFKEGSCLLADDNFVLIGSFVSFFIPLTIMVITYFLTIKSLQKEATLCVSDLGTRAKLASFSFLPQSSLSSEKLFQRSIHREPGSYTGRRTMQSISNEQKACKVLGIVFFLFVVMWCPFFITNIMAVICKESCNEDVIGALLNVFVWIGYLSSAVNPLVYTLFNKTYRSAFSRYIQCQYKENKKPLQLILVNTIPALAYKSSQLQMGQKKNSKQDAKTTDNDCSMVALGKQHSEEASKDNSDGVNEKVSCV

5-HT Transporter = 5-HT Transporter (Homo sapiens, UniProt P31645); details: read-out: binding affinity (Ki) 5-HT Transporter; cited from earlier work
5-HT Transporter, sequence (P31645 whole entry, species assumed): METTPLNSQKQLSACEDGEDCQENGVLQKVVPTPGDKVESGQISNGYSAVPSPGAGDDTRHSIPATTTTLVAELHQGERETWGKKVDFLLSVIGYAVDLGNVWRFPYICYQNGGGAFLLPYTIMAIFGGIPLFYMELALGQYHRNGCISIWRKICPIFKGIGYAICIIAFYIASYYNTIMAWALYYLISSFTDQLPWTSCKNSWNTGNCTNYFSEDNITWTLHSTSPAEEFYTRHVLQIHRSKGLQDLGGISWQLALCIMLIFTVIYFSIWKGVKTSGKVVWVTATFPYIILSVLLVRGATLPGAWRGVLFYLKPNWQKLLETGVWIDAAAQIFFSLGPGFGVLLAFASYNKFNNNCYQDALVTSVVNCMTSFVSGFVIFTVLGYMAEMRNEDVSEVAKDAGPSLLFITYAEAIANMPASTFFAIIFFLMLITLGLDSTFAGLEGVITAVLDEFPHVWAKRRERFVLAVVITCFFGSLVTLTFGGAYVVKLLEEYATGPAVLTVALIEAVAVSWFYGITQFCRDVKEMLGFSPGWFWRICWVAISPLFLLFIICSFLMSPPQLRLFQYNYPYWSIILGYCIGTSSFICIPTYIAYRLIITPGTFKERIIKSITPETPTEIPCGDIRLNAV

5-HT1B = 5-HT1B (Homo sapiens, UniProt P28222); details: read-out: binding affinity (Ki) 5-HT1B; cited from earlier work
5-HT1D = 5-HT1D (Homo sapiens, UniProt P28221); details: read-out: binding affinity (Ki) 5-HT1D; cited from earlier work
5-HT1D, sequence (P28221 whole entry, species assumed): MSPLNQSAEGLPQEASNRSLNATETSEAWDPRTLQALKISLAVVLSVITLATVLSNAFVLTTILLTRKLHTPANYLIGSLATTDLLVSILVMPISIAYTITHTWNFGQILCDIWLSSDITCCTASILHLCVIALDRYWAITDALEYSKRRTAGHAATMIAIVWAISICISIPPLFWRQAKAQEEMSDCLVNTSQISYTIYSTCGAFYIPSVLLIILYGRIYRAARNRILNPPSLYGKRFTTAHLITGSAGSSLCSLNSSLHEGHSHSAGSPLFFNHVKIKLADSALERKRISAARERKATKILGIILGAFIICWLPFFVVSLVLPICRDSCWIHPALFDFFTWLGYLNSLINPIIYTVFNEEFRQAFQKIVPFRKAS

Adrenergic Alpha1B = molecular target: T3, Adrenergic Alpha1B (Homo sapiens, UniProt P35368); details: read-out: binding affinity (Ki) Adrenergic Alpha1B; cited from earlier work
T3 sequence (P35368 1-520): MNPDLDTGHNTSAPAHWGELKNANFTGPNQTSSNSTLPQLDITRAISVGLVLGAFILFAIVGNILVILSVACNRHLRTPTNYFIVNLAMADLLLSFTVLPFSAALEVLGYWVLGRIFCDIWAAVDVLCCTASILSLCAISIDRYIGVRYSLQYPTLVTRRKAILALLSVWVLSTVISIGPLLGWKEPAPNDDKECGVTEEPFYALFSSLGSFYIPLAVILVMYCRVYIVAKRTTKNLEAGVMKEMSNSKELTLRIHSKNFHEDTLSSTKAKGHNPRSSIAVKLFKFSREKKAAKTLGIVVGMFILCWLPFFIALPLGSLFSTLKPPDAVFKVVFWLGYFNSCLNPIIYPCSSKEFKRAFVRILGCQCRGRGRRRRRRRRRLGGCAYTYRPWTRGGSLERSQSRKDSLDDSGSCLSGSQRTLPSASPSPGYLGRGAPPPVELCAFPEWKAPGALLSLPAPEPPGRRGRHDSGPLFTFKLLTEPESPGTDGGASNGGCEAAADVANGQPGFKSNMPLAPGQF

human 5-HT2BR = molecular target: T4, human 5-HT2BR (Homo sapiens, UniProt P41595); details: known drugs and commercial compounds; read-out: binding affinity (Ki) 5-HT2B / 5-HT2BR; cited from earlier work
T4 construct: expressed in transfected cells
T4 sequence (P41595 whole entry): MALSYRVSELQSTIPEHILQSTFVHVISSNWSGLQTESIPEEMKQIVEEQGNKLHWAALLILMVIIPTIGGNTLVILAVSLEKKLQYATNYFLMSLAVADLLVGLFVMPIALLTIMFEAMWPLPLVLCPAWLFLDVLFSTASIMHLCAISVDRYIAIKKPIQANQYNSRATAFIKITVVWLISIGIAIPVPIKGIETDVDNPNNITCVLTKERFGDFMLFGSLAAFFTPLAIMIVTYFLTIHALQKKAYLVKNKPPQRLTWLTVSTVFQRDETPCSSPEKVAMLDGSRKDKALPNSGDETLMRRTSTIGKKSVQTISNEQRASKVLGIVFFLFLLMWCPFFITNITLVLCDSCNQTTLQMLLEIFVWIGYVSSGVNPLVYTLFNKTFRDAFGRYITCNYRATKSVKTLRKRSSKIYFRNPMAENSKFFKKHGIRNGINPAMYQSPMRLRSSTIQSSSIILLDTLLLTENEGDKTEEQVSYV

human 5-HT2CR = molecular target: T5, human 5-HT2CR (Homo sapiens, UniProt P28335); details: known drugs and commercial compounds; read-out: binding affinity (Ki) 5-HT2C / 5-HT2CR; cited from earlier work
T5 construct: expressed in transfected cells
T5 sequence (P28335 33-458): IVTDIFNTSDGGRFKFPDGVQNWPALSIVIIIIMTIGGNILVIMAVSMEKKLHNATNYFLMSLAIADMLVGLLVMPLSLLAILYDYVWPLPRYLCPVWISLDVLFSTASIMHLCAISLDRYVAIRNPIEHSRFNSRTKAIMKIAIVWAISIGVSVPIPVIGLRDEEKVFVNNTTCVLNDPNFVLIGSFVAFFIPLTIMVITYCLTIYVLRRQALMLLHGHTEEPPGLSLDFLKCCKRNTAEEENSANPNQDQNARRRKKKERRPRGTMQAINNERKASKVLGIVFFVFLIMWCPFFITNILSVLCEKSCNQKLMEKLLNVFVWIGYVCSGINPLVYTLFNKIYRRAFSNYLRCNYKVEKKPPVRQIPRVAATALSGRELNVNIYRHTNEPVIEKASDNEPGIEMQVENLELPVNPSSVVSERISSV

Histamine H3 = Histamine H3 (Homo sapiens, UniProt Q9Y5N1); details: read-out: binding affinity (Ki) Histamine H3; cited from earlier work
Histamine H3, sequence (Q9Y5N1 whole entry): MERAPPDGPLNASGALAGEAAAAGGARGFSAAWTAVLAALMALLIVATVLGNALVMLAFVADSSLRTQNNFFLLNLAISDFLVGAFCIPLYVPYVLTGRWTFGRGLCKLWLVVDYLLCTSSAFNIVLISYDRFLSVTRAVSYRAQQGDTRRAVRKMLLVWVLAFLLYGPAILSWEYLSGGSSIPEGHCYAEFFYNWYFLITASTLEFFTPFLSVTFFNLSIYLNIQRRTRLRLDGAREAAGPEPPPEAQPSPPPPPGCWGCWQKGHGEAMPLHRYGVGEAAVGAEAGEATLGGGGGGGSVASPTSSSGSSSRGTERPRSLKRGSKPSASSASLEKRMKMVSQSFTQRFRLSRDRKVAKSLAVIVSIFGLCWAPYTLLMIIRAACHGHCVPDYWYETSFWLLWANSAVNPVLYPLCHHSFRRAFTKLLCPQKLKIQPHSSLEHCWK

human H1 receptor = human H1 receptor (Homo sapiens, UniProt P35367); details: read-out: binding affinity (Ki) Histamine H1; cited from earlier work
human H1 receptor, sequence (P35367 whole entry): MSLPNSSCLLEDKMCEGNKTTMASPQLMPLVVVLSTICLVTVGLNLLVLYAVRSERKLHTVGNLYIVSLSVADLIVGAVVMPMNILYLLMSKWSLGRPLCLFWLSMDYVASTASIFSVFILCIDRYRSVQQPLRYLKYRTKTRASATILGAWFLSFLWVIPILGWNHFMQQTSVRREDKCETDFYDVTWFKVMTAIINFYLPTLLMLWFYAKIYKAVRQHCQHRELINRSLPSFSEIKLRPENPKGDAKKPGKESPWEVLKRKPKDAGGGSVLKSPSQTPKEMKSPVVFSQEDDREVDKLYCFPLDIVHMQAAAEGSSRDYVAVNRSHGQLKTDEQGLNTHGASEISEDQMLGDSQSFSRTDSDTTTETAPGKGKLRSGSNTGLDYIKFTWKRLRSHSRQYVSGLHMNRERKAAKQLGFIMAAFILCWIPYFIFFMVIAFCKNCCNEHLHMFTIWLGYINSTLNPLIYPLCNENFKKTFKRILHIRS

In the case of `C[C@H]1CNCCc2ccc(Cl)cc21` [LOR], the Ki (5-HT1A) is listed as 700 nM, the Ki (5-HT5) is listed as 3710 nM and the Ki (5-HT6) is listed as 1980 nM. The Ki (5-HT7) was 636 nM and the Ki [1] was 1400 nM.

In the case of `CC(N)Cc1ccc2ccoc2c1` (centres unmarked) [Compound 6-APB, 6-APB], the “effect on seizure-like swim behavior (change in mean velocity)” value (scn1lab mutant zebrafish [2]; commercial 5-HT2BR/dopamine agonists, three concentrations, 30 and 90 min exposure, threshold ≥40%) is given as “suppressed convulsive swim behaviors in a concentration-dependent manner”, the “frequency of electrographic seizure (epileptiform) events” value (scn1lab mutant zebrafish [3]; 250 μM, 10 min LFP recording, 5 dpf larvae) is given as “significant changes in the frequency of events; also recorded: significantly suppressed the frequency of electrographic seizure events” and the Ki (human 5-HT2AR; known drugs and commercial compounds) is given as 1930 nM. The Ki (5-HT1A) was 1280 nM, the Ki (5-HT7) was 155 nM and the Ki (5-HT Transporter) was 2700 nM.

For `CCNC(C)Cc1cccc(C(F)(F)F)c1` (centres unmarked) [FEN], the Ki (5-HT1B) is given as 1840 nM, the Ki (5-HT1D) is given as 1260 nM and the Ki (5-HT6) is given as 9080 nM. For the same compound, the Ki (5-HT7) was 7310 nM and the Ki (Adrenergic Alpha1B) was 142 nM.

In the case of `Clc1ccc(Cn2c(CN3CCCC3)nc3ccccc32)cc1` [clemizole], the “inhibition of spontaneous convulsive behaviors” value (scn1lab mutant zebrafish [2]; phenotype-based screen) is listed as “effective inhibitor”, the “inhibition of electrographic seizures” value (scn1lab mutant zebrafish [3]; phenotype-based screen) is listed as “effective inhibitor” and the Ki (human 5-HT2AR) is listed as 239 nM. For the same compound, the Ki (human 5-HT2BR) was 25 nM, the Ki (human 5-HT2CR) was 197 nM and the Ki (Histamine H3) was 402 nM. For the same compound, the Ki (human H1 receptor) was 1.3 nM.
